Tests used:
lipoamide = compound: NC(=O)CCCCC1CCSS1 [lipoamide]; assay: thermal stability z-score vs DMSO; higher = more thermally stabilized by treatment; details: HeLa, lipoamide concentration 100 µM
Protocol: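 Cellular thermal proteome profiling in HeLa cells. Cells were treated with 100 µM lipoamide for 1 h, with or without 1 mM arsenate for a further 1 h, then heated to ten temperatures (37-66.3 °C), and soluble protein was quantified by TMT mass spectrometry relative to 0.1% DMSO controls. The thermal stability score (sum of log2 fold changes minus the abundance score) was transformed to a z-score; mean of n = 3 experiments.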

potassium arsenate = compound: O=[As]([O-])(O)O.[K+] [potassium arsenate]; assay: as above; details: HeLa; arsenate concentration 1 mM
Protocol: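 Cellular thermal proteome profiling in HeLa cells treated with 1 mM arsenate for 1 h (DMSO pretreatment), heated to ten temperatures (37-66.3 °C). Soluble protein was quantified by TMT mass spectrometry relative to DMSO controls; the thermal stability score was transformed to a z-score; mean of n = 3 experiments.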

[1] = arsenate co-treatment: 1 mM arsenate 1 h
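Also: each temperature applied for 3 min, abundance score taken as mean log2 fold change at the two lowest temperatures, z-score obtained by mean subtraction and division by SD.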

## SNRPF (UniProt P62306)
lipoamide; [1]
  thermal stability z-score: 0.0402
lipoamide; arsenate co-treatment: none
  thermal stability z-score: -0.072
Potassium arsenate
  thermal stability z-score: 0.116

## LIG3 (UniProt P49916)
Chain of UniProt P49916 (P49916 whole entry): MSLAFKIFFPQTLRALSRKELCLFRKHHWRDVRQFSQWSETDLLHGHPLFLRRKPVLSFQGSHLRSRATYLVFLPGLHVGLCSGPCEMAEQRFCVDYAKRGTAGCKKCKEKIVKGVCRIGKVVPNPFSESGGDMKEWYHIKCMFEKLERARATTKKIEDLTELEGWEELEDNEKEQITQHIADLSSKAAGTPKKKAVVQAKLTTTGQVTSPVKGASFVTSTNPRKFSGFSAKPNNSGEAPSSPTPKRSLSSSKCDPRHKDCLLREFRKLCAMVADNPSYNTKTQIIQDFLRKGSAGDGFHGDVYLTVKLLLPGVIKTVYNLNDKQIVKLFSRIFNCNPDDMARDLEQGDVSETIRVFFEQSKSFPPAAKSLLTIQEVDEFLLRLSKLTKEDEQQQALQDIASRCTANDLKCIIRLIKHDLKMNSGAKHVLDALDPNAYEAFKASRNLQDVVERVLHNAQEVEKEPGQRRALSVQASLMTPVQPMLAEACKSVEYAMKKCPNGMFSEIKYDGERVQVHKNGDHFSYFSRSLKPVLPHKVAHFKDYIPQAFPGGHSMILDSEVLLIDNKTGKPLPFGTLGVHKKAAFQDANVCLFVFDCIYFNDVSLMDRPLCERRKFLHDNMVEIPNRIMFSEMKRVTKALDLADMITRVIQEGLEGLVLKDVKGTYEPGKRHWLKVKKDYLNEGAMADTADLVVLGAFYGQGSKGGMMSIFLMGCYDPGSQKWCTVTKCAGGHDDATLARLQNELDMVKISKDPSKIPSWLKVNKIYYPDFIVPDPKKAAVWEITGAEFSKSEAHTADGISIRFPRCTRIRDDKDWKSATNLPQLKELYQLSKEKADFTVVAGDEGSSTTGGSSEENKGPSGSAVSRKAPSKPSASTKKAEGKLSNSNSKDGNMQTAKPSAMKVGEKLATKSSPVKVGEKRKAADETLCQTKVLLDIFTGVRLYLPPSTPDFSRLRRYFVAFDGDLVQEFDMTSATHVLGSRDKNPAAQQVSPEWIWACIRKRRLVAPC
lipoamide; [1]
  thermal stability z-score: -0.0256
lipoamide; arsenate co-treatment: none
  thermal stability z-score: 0.0387
Potassium arsenate
  thermal stability z-score: -1.05

## SCRIB
lipoamide; [1]
  thermal stability z-score: -0.00971
lipoamide; arsenate co-treatment: none
  thermal stability z-score: -0.22
Potassium arsenate
  thermal stability z-score: 0.128

## NCKAP5L (UniProt Q9HCH0)
lipoamide; [1]
  thermal stability z-score: -0.000592
lipoamide; arsenate co-treatment: none
  thermal stability z-score: 0.244
Potassium arsenate
  thermal stability z-score: 0.264

## TACC3 (UniProt Q9Y6A5)
lipoamide; [1]
  thermal stability z-score: -0.148
lipoamide; arsenate co-treatment: none
  thermal stability z-score: -0.162
Potassium arsenate
  thermal stability z-score: 0.662

## RNF216 (UniProt Q9NWF9)
lipoamide; [1]
  thermal stability z-score: -0.0849
lipoamide; arsenate co-treatment: none
  thermal stability z-score: 0.015
Potassium arsenate
  thermal stability z-score: 0.679

## RTF1 (UniProt Q92541)
lipoamide; [1]
  thermal stability z-score: 0.13
lipoamide; arsenate co-treatment: none
  thermal stability z-score: 0.0546
Potassium arsenate
  thermal stability z-score: -0.323

## AK4 (UniProt P27144)
Chain of UniProt P27144 (P27144 whole entry): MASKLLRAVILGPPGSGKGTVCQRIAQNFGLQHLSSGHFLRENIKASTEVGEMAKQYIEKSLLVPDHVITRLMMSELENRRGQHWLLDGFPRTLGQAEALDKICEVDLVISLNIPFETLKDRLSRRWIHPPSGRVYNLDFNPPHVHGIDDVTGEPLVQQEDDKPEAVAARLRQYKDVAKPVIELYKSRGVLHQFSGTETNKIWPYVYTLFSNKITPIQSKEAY
lipoamide; [1]
  thermal stability z-score: 0.119
lipoamide; arsenate co-treatment: none
  thermal stability z-score: 0.256
Potassium arsenate
  thermal stability z-score: -0.724

## GMDS (UniProt O60547)
lipoamide; [1]
  thermal stability z-score: 0.538
lipoamide; arsenate co-treatment: none
  thermal stability z-score: 0.00997
Potassium arsenate
  thermal stability z-score: -0.189

## FAM83B (UniProt Q5T0W9)
Chain of UniProt Q5T0W9 (Q5T0W9 whole entry): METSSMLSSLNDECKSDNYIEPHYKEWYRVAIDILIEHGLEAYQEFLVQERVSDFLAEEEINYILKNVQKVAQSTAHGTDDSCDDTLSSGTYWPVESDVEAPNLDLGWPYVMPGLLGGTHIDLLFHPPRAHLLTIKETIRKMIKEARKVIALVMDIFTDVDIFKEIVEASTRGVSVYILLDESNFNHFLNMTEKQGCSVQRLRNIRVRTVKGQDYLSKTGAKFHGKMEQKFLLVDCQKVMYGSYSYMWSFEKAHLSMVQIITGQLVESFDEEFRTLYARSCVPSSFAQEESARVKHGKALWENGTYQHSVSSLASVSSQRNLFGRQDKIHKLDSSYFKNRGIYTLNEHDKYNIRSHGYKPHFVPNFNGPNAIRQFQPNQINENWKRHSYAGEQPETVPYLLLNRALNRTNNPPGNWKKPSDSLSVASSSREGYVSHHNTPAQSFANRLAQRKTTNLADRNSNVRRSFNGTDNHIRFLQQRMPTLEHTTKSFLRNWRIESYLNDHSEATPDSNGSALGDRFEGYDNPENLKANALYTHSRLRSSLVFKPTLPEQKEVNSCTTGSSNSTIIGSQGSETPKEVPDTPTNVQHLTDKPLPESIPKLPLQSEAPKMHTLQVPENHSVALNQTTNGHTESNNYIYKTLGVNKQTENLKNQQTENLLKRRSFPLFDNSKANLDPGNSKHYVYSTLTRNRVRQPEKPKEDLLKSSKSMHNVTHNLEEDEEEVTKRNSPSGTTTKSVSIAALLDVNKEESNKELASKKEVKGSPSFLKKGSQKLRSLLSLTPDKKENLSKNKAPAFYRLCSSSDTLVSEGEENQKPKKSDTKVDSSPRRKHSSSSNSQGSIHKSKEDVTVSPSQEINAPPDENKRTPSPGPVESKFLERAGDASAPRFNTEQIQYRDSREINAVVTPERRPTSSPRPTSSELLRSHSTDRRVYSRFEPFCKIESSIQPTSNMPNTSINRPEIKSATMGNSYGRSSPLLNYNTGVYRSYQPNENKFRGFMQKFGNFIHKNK
lipoamide; [1]
  thermal stability z-score: -0.567
lipoamide; arsenate co-treatment: none
  thermal stability z-score: -0.89
Potassium arsenate
  thermal stability z-score: -2.02

## MOCS3 (UniProt O95396)
lipoamide; [1]
  thermal stability z-score: 0.01
lipoamide; arsenate co-treatment: none
  thermal stability z-score: -0.0171
Potassium arsenate
  thermal stability z-score: -0.0988

## ACSF2 (UniProt Q96CM8)
lipoamide; [1]
  thermal stability z-score: -0.634
lipoamide; arsenate co-treatment: none
  thermal stability z-score: -0.524
Potassium arsenate
  thermal stability z-score: -0.301

## SLC12A4 (UniProt Q9UP95)
lipoamide; [1]
  thermal stability z-score: -0.481
lipoamide; arsenate co-treatment: none
  thermal stability z-score: -1.18
Potassium arsenate
  thermal stability z-score: -0.606

## HSPA2 (UniProt P54652)
lipoamide; [1]
  thermal stability z-score: -0.295
lipoamide; arsenate co-treatment: none
  thermal stability z-score: 0.552
Potassium arsenate
  thermal stability z-score: 0.26

## TSC22D1 (UniProt Q15714)
lipoamide; [1]
  thermal stability z-score: 0.404
lipoamide; arsenate co-treatment: none
  thermal stability z-score: 0.657
Potassium arsenate
  thermal stability z-score: 0.629

## SRGAP2 (UniProt O75044)
lipoamide; [1]
  thermal stability z-score: -0.272
lipoamide; arsenate co-treatment: none
  thermal stability z-score: -0.287
Potassium arsenate
  thermal stability z-score: 0.309

## ATN1 (UniProt P54259)
lipoamide; [1]
  thermal stability z-score: 0.566
lipoamide; arsenate co-treatment: none
  thermal stability z-score: 0.784
Potassium arsenate
  thermal stability z-score: 0.759

## TRABD2A (UniProt Q86V40)
lipoamide; [1]
  thermal stability z-score: -0.806
lipoamide; arsenate co-treatment: none
  thermal stability z-score: -1.21
Potassium arsenate
  thermal stability z-score: 0.517

## BAZ1A (UniProt Q9NRL2)
Chain of UniProt Q9NRL2 (Q9NRL2 whole entry): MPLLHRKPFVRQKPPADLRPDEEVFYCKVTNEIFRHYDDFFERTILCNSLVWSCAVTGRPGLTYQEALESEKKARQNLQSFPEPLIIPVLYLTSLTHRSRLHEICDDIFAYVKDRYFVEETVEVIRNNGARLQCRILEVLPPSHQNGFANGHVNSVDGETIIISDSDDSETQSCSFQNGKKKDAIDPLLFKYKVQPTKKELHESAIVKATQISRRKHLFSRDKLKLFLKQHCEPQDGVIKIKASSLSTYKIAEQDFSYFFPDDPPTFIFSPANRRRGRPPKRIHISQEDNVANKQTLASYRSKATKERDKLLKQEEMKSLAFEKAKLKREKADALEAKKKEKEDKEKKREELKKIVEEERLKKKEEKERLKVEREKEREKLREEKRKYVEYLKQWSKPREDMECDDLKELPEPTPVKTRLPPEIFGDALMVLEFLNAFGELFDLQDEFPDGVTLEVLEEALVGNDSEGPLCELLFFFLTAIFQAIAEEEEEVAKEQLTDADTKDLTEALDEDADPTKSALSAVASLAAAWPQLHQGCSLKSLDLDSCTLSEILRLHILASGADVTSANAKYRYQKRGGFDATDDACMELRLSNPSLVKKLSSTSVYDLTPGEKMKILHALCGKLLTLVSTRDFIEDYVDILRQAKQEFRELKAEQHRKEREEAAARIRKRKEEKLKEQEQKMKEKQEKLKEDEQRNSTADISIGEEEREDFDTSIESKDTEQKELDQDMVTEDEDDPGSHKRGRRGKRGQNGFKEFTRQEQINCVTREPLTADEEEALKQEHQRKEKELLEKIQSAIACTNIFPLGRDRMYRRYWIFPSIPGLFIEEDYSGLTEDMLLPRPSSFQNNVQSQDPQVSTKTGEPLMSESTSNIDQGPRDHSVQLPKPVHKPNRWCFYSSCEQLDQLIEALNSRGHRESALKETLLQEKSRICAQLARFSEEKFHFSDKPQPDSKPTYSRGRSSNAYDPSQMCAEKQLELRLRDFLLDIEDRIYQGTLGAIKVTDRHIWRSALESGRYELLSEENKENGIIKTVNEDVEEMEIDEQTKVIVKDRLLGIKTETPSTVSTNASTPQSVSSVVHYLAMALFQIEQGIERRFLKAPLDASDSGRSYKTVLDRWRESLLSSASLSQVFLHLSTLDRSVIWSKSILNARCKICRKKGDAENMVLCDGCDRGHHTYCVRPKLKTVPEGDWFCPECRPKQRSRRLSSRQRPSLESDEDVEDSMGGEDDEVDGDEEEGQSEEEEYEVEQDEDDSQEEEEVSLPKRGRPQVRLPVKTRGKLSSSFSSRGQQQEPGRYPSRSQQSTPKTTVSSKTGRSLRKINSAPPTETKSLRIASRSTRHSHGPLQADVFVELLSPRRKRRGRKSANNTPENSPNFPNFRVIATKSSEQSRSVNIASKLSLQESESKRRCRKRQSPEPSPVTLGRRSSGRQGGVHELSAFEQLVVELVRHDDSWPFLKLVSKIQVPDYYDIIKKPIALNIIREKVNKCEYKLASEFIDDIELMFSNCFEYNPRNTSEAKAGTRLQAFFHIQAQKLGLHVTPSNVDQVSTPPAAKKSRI
lipoamide; [1]
  thermal stability z-score: -0.258
lipoamide; arsenate co-treatment: none
  thermal stability z-score: 0.0591
Potassium arsenate
  thermal stability z-score: -0.236

## PDE4DIP (UniProt Q5VU43)
lipoamide; [1]
  thermal stability z-score: 0.0302
lipoamide; arsenate co-treatment: none
  thermal stability z-score: -0.0224
Potassium arsenate
  thermal stability z-score: -0.0411

## IKBIP (UniProt Q70UQ0)
lipoamide; [1]
  thermal stability z-score: -3.01
lipoamide; arsenate co-treatment: none
  thermal stability z-score: -2.3
Potassium arsenate
  thermal stability z-score: -0.0459

## CSTF2 (UniProt P33240)
lipoamide; [1]
  thermal stability z-score: 1.09
lipoamide; arsenate co-treatment: none
  thermal stability z-score: 0.979
Potassium arsenate
  thermal stability z-score: 0.756

## RBM7 (UniProt Q9Y580)
Chain of UniProt Q9Y580 (Q9Y580 whole entry): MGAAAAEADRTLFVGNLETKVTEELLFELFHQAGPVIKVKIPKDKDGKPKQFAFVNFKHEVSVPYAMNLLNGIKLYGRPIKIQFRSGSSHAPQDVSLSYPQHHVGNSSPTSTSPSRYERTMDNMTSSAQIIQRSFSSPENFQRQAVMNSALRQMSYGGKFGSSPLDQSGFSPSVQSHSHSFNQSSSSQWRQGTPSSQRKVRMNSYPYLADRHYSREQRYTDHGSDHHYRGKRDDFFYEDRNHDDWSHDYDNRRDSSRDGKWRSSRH
lipoamide; [1]
  thermal stability z-score: 0.00736
lipoamide; arsenate co-treatment: none
  thermal stability z-score: 0.0818
Potassium arsenate
  thermal stability z-score: 0.0182

## UCHL3 (UniProt P15374)
Chain of UniProt P15374 (P15374 whole entry): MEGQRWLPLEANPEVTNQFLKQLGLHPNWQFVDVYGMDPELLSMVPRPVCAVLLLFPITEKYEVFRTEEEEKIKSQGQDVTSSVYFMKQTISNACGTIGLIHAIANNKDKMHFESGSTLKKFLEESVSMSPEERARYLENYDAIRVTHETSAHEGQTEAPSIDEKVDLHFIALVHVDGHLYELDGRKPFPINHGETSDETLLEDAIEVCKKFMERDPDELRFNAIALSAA
lipoamide; [1]
  thermal stability z-score: 0.844
lipoamide; arsenate co-treatment: none
  thermal stability z-score: 0.126
Potassium arsenate
  thermal stability z-score: -0.0572

## TUFM (UniProt P49411)
lipoamide; [1]
  thermal stability z-score: -2.05
lipoamide; arsenate co-treatment: none
  thermal stability z-score: -1.11
Potassium arsenate
  thermal stability z-score: -1.29

## CLPB (UniProt Q9H078)
lipoamide; [1]
  thermal stability z-score: -0.507
lipoamide; arsenate co-treatment: none
  thermal stability z-score: -0.275
Potassium arsenate
  thermal stability z-score: -0.0952

## ZBTB8OS (UniProt Q8IWT0)
lipoamide; [1]
  thermal stability z-score: -0.245
lipoamide; arsenate co-treatment: none
  thermal stability z-score: 0.591
Potassium arsenate
  thermal stability z-score: -1.01

## RBM10
lipoamide; [1]
  thermal stability z-score: 3.5
lipoamide; arsenate co-treatment: none
  thermal stability z-score: 2.13
Potassium arsenate
  thermal stability z-score: 1.25

## TMEM2 (UniProt Q9UHN6)
lipoamide; [1]
  thermal stability z-score: -0.117
lipoamide; arsenate co-treatment: none
  thermal stability z-score: -0.196
Potassium arsenate
  thermal stability z-score: 0.466

## C18ORF8 (UniProt Q96DM3)
lipoamide; [1]
  thermal stability z-score: 0.827
lipoamide; arsenate co-treatment: none
  thermal stability z-score: 0.41
Potassium arsenate
  thermal stability z-score: -0.638

## RPS19 (UniProt P39019)
lipoamide; [1]
  thermal stability z-score: 0.104
lipoamide; arsenate co-treatment: none
  thermal stability z-score: 0.15
Potassium arsenate
  thermal stability z-score: -1.03

## CAPZB (UniProt P47756)
Chain of UniProt P47756 (P47756 whole entry): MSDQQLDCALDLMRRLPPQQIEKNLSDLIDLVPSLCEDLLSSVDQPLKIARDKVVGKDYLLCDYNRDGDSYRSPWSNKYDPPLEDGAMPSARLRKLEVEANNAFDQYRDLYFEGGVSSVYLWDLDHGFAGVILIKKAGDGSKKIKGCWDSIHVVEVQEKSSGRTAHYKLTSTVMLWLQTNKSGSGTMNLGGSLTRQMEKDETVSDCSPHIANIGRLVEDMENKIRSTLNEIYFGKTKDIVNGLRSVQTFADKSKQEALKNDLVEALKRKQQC
lipoamide; [1]
  thermal stability z-score: -0.059
lipoamide; arsenate co-treatment: none
  thermal stability z-score: 0.144
Potassium arsenate
  thermal stability z-score: 0.454

## CXXC1 (UniProt Q9P0U4)
lipoamide; [1]
  thermal stability z-score: -0.00204
lipoamide; arsenate co-treatment: none
  thermal stability z-score: 0.187
Potassium arsenate
  thermal stability z-score: 0.00172

## YEATS4 (UniProt O95619)
Chain of UniProt O95619 (O95619 whole entry): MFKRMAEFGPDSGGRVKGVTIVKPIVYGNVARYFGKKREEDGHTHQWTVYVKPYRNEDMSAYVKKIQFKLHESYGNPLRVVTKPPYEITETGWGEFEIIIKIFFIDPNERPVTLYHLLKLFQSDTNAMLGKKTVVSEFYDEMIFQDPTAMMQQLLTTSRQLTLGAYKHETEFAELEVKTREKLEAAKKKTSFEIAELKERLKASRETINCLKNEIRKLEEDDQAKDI
lipoamide; [1]
  thermal stability z-score: 0.802
lipoamide; arsenate co-treatment: none
  thermal stability z-score: 0.865
Potassium arsenate
  thermal stability z-score: -0.33

## MCU (UniProt Q8NE86)
lipoamide; [1]
  thermal stability z-score: -0.0937
lipoamide; arsenate co-treatment: none
  thermal stability z-score: 0.21
Potassium arsenate
  thermal stability z-score: 0.57

## CD9 (UniProt P21926)
Chain of UniProt P21926 (P21926 whole entry): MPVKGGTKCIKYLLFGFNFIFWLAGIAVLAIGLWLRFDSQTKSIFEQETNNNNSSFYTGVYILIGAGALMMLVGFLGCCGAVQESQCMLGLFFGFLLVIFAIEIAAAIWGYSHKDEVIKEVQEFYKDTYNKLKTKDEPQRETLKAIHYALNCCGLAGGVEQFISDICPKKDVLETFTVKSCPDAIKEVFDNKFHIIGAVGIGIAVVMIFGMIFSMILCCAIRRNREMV
lipoamide; [1]
  thermal stability z-score: 1.93
lipoamide; arsenate co-treatment: none
  thermal stability z-score: 1.62
Potassium arsenate
  thermal stability z-score: 0.251
